Reference: the RepoRT retention time repository (doi:10.1038/s41597-019-0305-1)

Test: RP, Waters SunFire C18, 50 × 4.6 mm, 3.5 µm, 0.5 mL/min, estimated dead time 1.1 min; A: water + 0.1% formic acid; B: acetonitrile + 0.1% formic acid; gradient (min/%B) 0/5 7/100 8/100
Conditions: stereoisomer not certain

LC retention time	SMILES
5.25 min	CC1OC2(C(C)C(O)C1C)C(C)C1OC(=O)C2(C)C(=O)C1C (centres undefined)
7.45 min	CC(=O)C1=C(O)C=C2Oc3c(C)c(O)c(C(C)=O)c(O)c3C2(C)C1=O (centres undefined)
6 min	COc1cc(O)c2c(c1)C(=O)c1cc(C=O)cc(O)c1C2=O
6.35 min	CC(=O)OC(C)CC1CC(OC(C)=O)C(C)C(O)C(C)C(=O)OC(CC(C)OC(C)=O)CC(OC(C)=O)C(C)C(O)C(C)C(=O)O1 (centres undefined)
5.84 min	CC(=O)OC1C(C)C(C)OC2(C(C)C3OC(=O)C2(C)C(=O)C3C)C1C (centres undefined)
5.3 min	Cc1cc(OC(=O)c2c(C)cc(O)cc2O)cc(O)c1C(=O)O
7.27 min	O=C(NC(Cc1ccccc1)C(=O)O)C(=C1OC(=O)C(c2ccccc2)=C1O)c1ccccc1 (centres undefined)
3.99 min	Cc1cc(O)c(C)c(O)c1C(=O)O
5.72 min	COc1cc(O)c2c(c1)C(=O)c1cc(C(=O)O)cc(O)c1C2=O
6.08 min	CCCCCc1cc2cc(O)cc(O)c2c(=O)o1
6.58 min	Cc1cc(O)c2c(c1)C(=O)c1c(c(O)cc(O)c1-c1c(C)cc(O)c3c1C(=O)c1cc(O)cc(O)c1C3=O)C2=O
6.03 min	CCCCCC(=O)Cc1cc(O)cc(O)c1C(=O)Oc1cc(CC(=O)CCCCC)c(C(=O)O)c(OC)c1
8 min	CCCCCCCCCCCCCC1OC(=O)C(C)C1C(=O)O (centres undefined)
7.28 min	CCCCCc1cc(OC(=O)c2c(O)cc(OC)cc2CC(=O)CCC)cc(O)c1C(=O)O
7.07 min	Cc1cc(O)c(C=O)c(O)c1C(=O)O
5.63 min	Cc1cc(O)c(C)c2c1C(=O)Oc1c(C)c(O)c(C(=O)O)c(C)c1O2
5.25 min	CCCc1cc(OC)cc(O)c1C(=O)O
4.72 min	Cc1cc(O)cc2oc3cc(O)c4c(c3c12)COC4=O
7.46 min	CCCCCCCCCCCC1OC(=O)C(C)C1C(=O)O (centres undefined)
